# Earlier results in US10500240B2, “Use of terminalia chebula extract for treatment of osteoarthritis” (Natreon, Inc., priority 2013, dated 2019).
# Legend:
# maltase = conditions: reversible and non-competitive inhibitor; read-out: K(i) value, maltase
# HepG2 cells = conditions: with doxorubicin
smiles,measurement,setting,value
"O=C(O)CC1C(=O)OC2C3COC(=O)c4cc(O)c(O)c(O)c4-c4c(cc(O)c(O)c4O)C(=O)OC2C(OC(=O)c2cc(O)c(O)c4c2C1C(O)C(=O)O4)C(OC(=O)c1cc(O)c(O)c(O)c1)O3 [Chebulagic acid, beta-1-O-galloyl-2,4-chebuloyl-3,6-(R)-hexahydroxydiphenoyl-D-glucose]",Ki,maltase,6.6 µM
same,IC50,COX-1,15 ± 0.288 µM
same,enhanced the cytotoxicity of doxorubicin in HepG2 cells,HepG2 cells,20 fold
same,IC50,5-LOX,2.1 ± 0.057 µM
